Measurements from US7763641B2, “Broadspectrum heterocyclic substituted phenyl containing sulfonamide HIV protease inhibitors” (Tibotec Pharmaceuticals Ltd., priority 2001, dated 2010).
Read-outs that look alike come from different tables or passages of the source.

Assays:
[1] = test system: HIV strain F; test: Cellular anti-HIV assay, clinically isolated mutant strain F; type: cell-based; conditions: FR=EC50 (mutant strain)/EC50 (HIV-1 strain LAI)
Experimental: (§1) HIV- or mock-infected MT4 cells were incubated for five days in the presence of various concentrations of the inhibitor. […] Cell viability is measured by measuring the concentration of MTT, a yellow, water soluble tetrazolium dye that is converted to a purple, water insoluble formazan in the mitochondria of living cells only. Upon solubilization of the resulting formazan crystals with isopropanol, the absorbance of the solution is monitored at 540 nm. The values correlate directly to the number of living cells remaining in the culture at the completion of the five day incubation. The inhibitory activity of the compound was monitored on the virus-infected cells and was expressed as EC50 and EC90. These values represent the amount of the compound required to protect 50% and 90%, respectively, of the cells from the cytopathogenic effect of the virus. […] The selectivity index (SI) (ratio CC50/EC50) is an indication of the selectivity of the anti-HIV activity of the inhibitor. Wherever results are reported as e.g. pEC50 or pCC50 values, the result is expressed as the negative logarithm of the result expressed as EC50 or CC50 respectively.
(§2) Because of the increasing emergence of drug resistant HIV strains, the present compounds were tested for their potency against clinically isolated HIV strains harboring several mutations (Table 7 and 8).
(§3) As a measure of the broad spectrum activity of the present compounds, the fold resistance (FR), defined as FR=EC50 (mutant strain)/EC50 (HIV-1 strain LAI), was determined.

[2] = test system: HIV strain D; test: Cellular anti-HIV assay, clinically isolated mutant strain D; type: cell-based; conditions: FR=EC50 (mutant strain)/EC50 (HIV-1 strain LAI)
Experimental: as §1, §2, §3

[3] = test system: HIV-1 strain LAI; test: Cellular anti-HIV assay (MTT), wild type strain; type: cell-based; conditions: for pEC50: MT4 cells, five days, MTT, HIV-1 strain LAI, Tables 1-6; for WT (pEC50 against wild type HIV-LAI strain): Table 8
Experimental: The compounds of the present invention were examined for anti-viral activity in a cellular assay. […] The cellular assay was performed according to the following procedure.

[4] = test system: HIV strain B; test: Cellular anti-HIV assay, clinically isolated mutant strain B; type: cell-based; conditions: FR=EC50 (mutant strain)/EC50 (HIV-1 strain LAI)
Experimental: as §1, §2, §3

[5] = test system: HIV strain E; test: Cellular anti-HIV assay, clinically isolated mutant strain E; type: cell-based; conditions: FR=EC50 (mutant strain)/EC50 (HIV-1 strain LAI)
Experimental: as §1, §2, §3

[6] = test system: HIV strain C; test: Cellular anti-HIV assay, clinically isolated mutant strain C; type: cell-based; conditions: FR=EC50 (mutant strain)/EC50 (HIV-1 strain LAI)
Experimental: as §1, §2, §3

[7] = test system: mock-infected MT4 cells; test: Toxicity on mock-infected cells (MTT)
Experimental: as §1, §3

[8] = test system: HIV strain A; test: Cellular anti-HIV assay, clinically isolated mutant strain A; type: cell-based; conditions: FR=EC50 (mutant strain)/EC50 (HIV-1 strain LAI)
Experimental: as §1, §2, §3

[9] = pCC50 with mock transfected cells

Row | Molecule | F (FR towards mutant F) [1] | D (FR towards mutant D) [2] | pEC50 [3] | WT (pEC50 against wild type HIV-LAI strain) [3] | B (FR towards mutant B) [4] | E (FR towards mutant E) [5] | C (FR towards mutant C) [6] | Tox (pCC50) [7] | A (FR value towards mutant A) [8] | Tox (pCC50) [7, 9]
1 | CC(C)CN(CC(O)C(Cc1ccccc1)NC(=O)OC1COC2OCCC12)S(=O)(=O)c1ccc(-c2csc(N)n2)cc1 (stereo not shown) [Compound 2] | 91 | 9.3 | 8.5 | 8.5 | 10.0 | 8.9 | 3.0 | 4.07 | 26 | –
2 | CC(=O)Nc1nc(-c2ccc(S(=O)(=O)N(CC(C)C)CC(O)C(Cc3ccccc3)NC(=O)OC3COC4OCCC34)cc2)cs1 (stereo not shown) [Compound 3] | 151 | 26 | 8.3 | 8.3 | 8.9 | 17 | 7.4 | – | 39 | 4.11
3 | CC(C)CN(CC(O)C(Cc1ccccc1)NC(=O)OC1COC2OCCC12)S(=O)(=O)c1ccc(-c2csc(NCCCN(C)C)n2)cc1 (stereo not shown) [Compound 6] | 79 | 3.8 | 7.5 | 7.5 | 4.7 | 6.6 | 1.2 | 4.69 | 6.2 | –
4 | CC(=O)Nc1nc(-c2ccc(S(=O)(=O)N(CC(C)C)CC(O)C(Cc3ccccc3)NC(=O)OC3COC4OCCC34)cc2)c[nH]1 (stereo not shown) [Compound 32] | 7.2 | – | 7.7 | 7.7 | 1.0 | 0.95 | 0.33 | – | 1.3 | <4.0
5 | CC(C)CN(CC(O)C(Cc1ccccc1)NC(=O)OC1COC2OCCC12)S(=O)(=O)c1ccc(-c2c[nH]c(NC(=O)OC3COC4OCCC34)n2)cc1 (stereo not shown) [Compound 33] | 2.6 | – | 6.7 | 6.7 | 0.66 | 0.19 | 0.2 | – | 0.71 | <4.0
6 | Cc1nc(-c2ccc(S(=O)(=O)N(CC(C)C)CC(O)C(Cc3ccccc3)NC(=O)OC3COC4OCCC34)cc2)co1 (stereo not shown) [Compound 35] | 42 | 6.2 | 8.4 | 8.4 | 10.5 | 8.3 | 8.3 | <4.0 | 11 | –
7 | CC(C)CN(C[C@@H](O)[C@H](Cc1ccccc1)NC(=O)O[C@H]1CO[C@H]2OCC[C@H]21)S(=O)(=O)c1ccc(-c2noc(-c3ccco3)n2)cc1 [Compound 38, [(1S,2R)-3-[N-[4-(5-(furan-2-yl)oxadiazol-3-yl)phenylsulfonyl]-N-(2-methylpropyl)amino]-2-hydroxy-1-(phenylmethyl)propyl]carbamic acid, [(3R,3aS,6aR)-hexahydrofuro[2,3-b]furan-3-yl]ester] | 44.7 | 14.8 | 8.4 | 8.4 | 23 | 9.5 | 6.8 | – | 30 | <4.49
8 | CCCc1nc(-c2ccc(S(=O)(=O)N(CC(C)C)CC(O)C(Cc3ccccc3)NC(=O)OC3COC4OCCC34)cc2)co1 (stereo not shown) [Compound 40] | 219 | 12.9 | 8.5 | 8.5 | – | 41 | 4.1 | <4.49 | 5.0 | –
9 | CC(C)CN(CC(O)C(Cc1ccccc1)NC(=O)OC1COC2OCCC12)S(=O)(=O)c1ccc(-c2coc(-c3ccc([N+](=O)[O-])cc3)n2)cc1 (stereo not shown) [Compound 43] | – | 10.2 | 7.9 | 7.9 | 23 | 6.6 | 9.1 | – | 54 | <4.0
10 | COc1cccc(-c2nc(-c3ccc(S(=O)(=O)N(CC(C)C)CC(O)C(Cc4ccccc4)NC(=O)OC4COC5OCCC45)cc3)co2)c1 (stereo not shown) [Compound 44] | 77 | 15 | 8.0 | 8.0 | 14 | 13 | 8.1 | – | 39 | <4.49
11 | Cc1cc(-c2nc(-c3ccc(S(=O)(=O)N(CC(C)C)CC(O)C(Cc4ccccc4)NC(=O)OC4COC5OCCC45)cc3)co2)no1 (stereo not shown) [Compound 46] | – | 32 | 8.4 | 8.4 | 32 | 9.8 | 9.1 | <4.49 | 182 | –
12 | CC(=O)OC(c1ccccc1)c1nc(-c2ccc(S(=O)(=O)N(CC(C)C)CC(O)C(Cc3ccccc3)NC(=O)OC3COC4OCCC34)cc2)co1 (stereo not shown) [Compound 48] | – | 17 | 8.3 | 8.3 | 25 | 6.9 | 5.8 | <4.0 | 89 | –
13 | CC(C)CN(CC(O)C(Cc1ccccc1)NC(=O)OC1COC2OCCC12)S(=O)(=O)c1ccc(-c2coc(-c3cccs3)n2)cc1 (stereo not shown) [Compound 50] | – | 13 | 8.0 | 8.0 | 14 | – | 4.3 | <4.49 | – | –
14 | CC(C)CN(CC(O)C(Cc1ccccc1)NC(=O)OC1COC2OCCC12)S(=O)(=O)c1ccc(-c2coc(-c3ccc(Br)cc3)n2)cc1 (stereo not shown) [Compound 51] | – | 12 | 7.5 | 7.5 | – | 4.8 | 4.8 | – | – | <4.49
15 | CC(C)CN(CC(O)C(Cc1ccccc1)NC(=O)OC1COC2OCCC12)S(=O)(=O)c1ccc(-c2coc(-c3ccc(C#N)cc3)n2)cc1 (stereo not shown) [Compound 52] | – | 16 | 8.1 | 8.1 | 17 | 11 | 6.2 | <4.49 | – | –
16 | [(1S,2R)-2-hydroxy-3-[N-[4-(2-methylaminothiazol-4-yl)phenylsulfonyl]-N-(2-methylpropyl)amino]-1-(phenylmethyl)propyl]carbamic acid, [(3R,3aS,6aR)-hexahydrofuro[2,3-b]furan-3-yl]ester [Compound 1] | 42 | 7.9 | 8.5 | 8.5 | 2.1 | 5.0 | 1.2 | – | 5.4 | 4.19
